Drawing on patent EP0533926A1, “[…]” (NIPPON SHINYAKU COMPANY, LIMITED, priority 1990, dated 1991), this text covers inhibition for 2 molecules.

The assay concerns human platelet aggregation. Nature of the assay: Inhibitory effect on human platelet aggregation (collagen-induced, PRP, absorbance at 660 nm). The assay is classed as cell-based. Particulars: concentration of collagen 2 µg/ml, 37 °C, read-out: percent inhibition of platelet aggregation (%); for inhibition at 10 µM: test drug 10 µM; for inhibition at 100 µM: test drug 100 µM. Here is the method: Inhibitory effect on human platelet aggregation
Using a syringe filled with 2.5 ml of sodium citrate solution (Citrate for erythrocyte sedimentation test (Kokusai) distributed by Green Cross Corporation) beforehand, human blood was collected in a total quantity of 25 ml and stirred well. The blood was then centrifuged at 200× g for 10 minutes and the supernatant was recovered as a PRP (platelet-rich plasma).
Horse tendon collagen [HORMON-CHEMIE MÜNCHEN GMBH, collagen reagent (Holm)] was previously diluted to 10 and 20 µg /ml with the accompanying buffer.
Each test drug was diluted with PBS and its concentration (mM) was estimated from ultraviolet absorption.
The assay for platelet aggregation was carried out with NKK HEMA TRACER 1 (Nikko Bioscience). The cell was filled with 0.2 ml of PRP and 0.025 ml of the test drug solution and the absorbance was measured at a constant temperature of 37 °C. Then, 0.025 ml of the above collagen solution was added and the absorbance was measured (wavelength 660 nm). The percent inhibition of platelet aggregation (%) was calculated by means of the following equation. [formula] [ ] represents the absorbance.

Structures are written as SMILES.

`Nc1nc2c(nc(Br)n2[C@@H]2O[C@@H]3COP(=O)(O)O[C@H]3[C@H]2O)c(=O)[nH]1` [Example 8-Br-c-GMP, 8-bromocyclic GMP]: the inhibition at 10 µM is 2.9% and the inhibition at 100 µM was determined as 49%.
As for `Nc1nc2c(ncn2[C@@H]2O[C@@H]3COP(=O)(O)O[C@H]3[C@H]2O)c(=O)[nH]1` [c-GMP, cyclic GMP], the inhibition at 10 µM is 4% and the inhibition at 100 µM was determined as 23%.

Usually inhibition stands for the relative decrease from the control value, in per cent.
